Data: patent US11427528B2 (Zhejiang University of Technology, priority 2016, dated 2022)
Entries after “also recorded” stand apart in the source; their conditions may differ. Read-outs that look alike come from different tables or passages of the source.

Assays:
[1] = Stability experiment, light exposure (XRPD); type: physicochemical; settings: 4500±500 lx, 25° C., open petri dish, XRPD compared with 0th day
Description: (§1) The instrument used for collecting X-ray powder diffraction (XRPD) patterns is Bruker D8 Advance diffractometer. The samples are tested at room temperature under the following conditions: 2θ scan range, 3-40°; step size, 0.02°/step; speed, 0.2 s/step.
(§2) They were placed at 4500±500 lx light exposure, and 90±5% RH humidity chamber at 25° C., respectively. The XRPD results of the 5th day and 10th day were compared with that of the 0th day.

[2] = Grinding test in ball mill (XRPD); type: physicochemical; settings: 20 Hz, 100 mg, XRPD compared with unground sample
Description: as §1

[3] = Stability experiment, high humidity (XRPD); type: physicochemical; settings: 90±5% RH, 25° C., open petri dish, XRPD compared with 0th day
Description: as §1, §2

[4] = cited from earlier work
[5] = Storage stability at room temperature; type: physicochemical; settings: 3 months

Compound | Crystalline form after light exposure for 10 days [1] | Crystalline form after grinding for 10 min [2] | Crystalline form after high humidity for 10 days [3] | Form change at room temperature ([4]; in one day at room temperature) | Form change at room temperature ([4]; after two days at room temperature) | Form change after mechanical grinding ([4]; mechanical grinding) | Stability at room temperature [5]
CC(C)OC(=O)C(C)(C)Oc1ccc(C(=O)c2ccc(Cl)cc2)cc1 [Form I, reference compound] | Form I | Form I | Form I | – | – | – | –
CC(C)OC(=O)C(C)(C)Oc1ccc(C(=O)c2ccc(Cl)cc2)cc1 [Form III] | – | – | – | transformed to Form II and Form I | – | – | –
CC(C)OC(=O)C(C)(C)Oc1ccc(C(=O)c2ccc(Cl)cc2)cc1 [Form II] | – | – | – | – | transformed to Form I | transformed to Form I | –
CC(C)OC(=O)C(C)(C)Oc1ccc(C(=O)c2ccc(Cl)cc2)cc1 [Form IV] | does not change its crystalline form; also recorded: Form IV | does not change its crystalline form; also recorded: Form IV | does not change its crystalline form; also recorded: Form IV | – | – | – | remains stable
